Experiments:
[1] = tested on: PPARγ ligand production in 5B2 cells; assay: Effect of COX and LOX inhibitors on PPARγ ligand production in differentiating 5B2 cells (β-gal activity); assay type: cell-based, murine; conditions: day 2
Text: To test whether PPARγ ligand production was dependent upon cyclooxygenase (COX) or lipooxygenase (LOX), which would be expected if the ligand were a prostaglandin, the effect of COX and LOX inhibitors on PPARγ ligand production during 3T3-L1 differentiation into adipocytes was examined by measuring the β-gal activity in the stable cell line, 5B2.
5B2 cells were stimulated to differentiation into adipocytes as described above. The media containing the mixture of insulin, DEX and MIX is called d0 media on FIG. 10. In the experimental samples, d0 media contained the indicated COX or LOX inhibitor. The fold induction of β-gal activity of day 2 cells was compared to cells of day 2 stimulated in the absence of hormones (g media).

PPARγ = biological target: T1, PPARγ (Homo sapiens, UniProt P37231); conditions: cited from earlier work
T1 sequence (P37231 1-505): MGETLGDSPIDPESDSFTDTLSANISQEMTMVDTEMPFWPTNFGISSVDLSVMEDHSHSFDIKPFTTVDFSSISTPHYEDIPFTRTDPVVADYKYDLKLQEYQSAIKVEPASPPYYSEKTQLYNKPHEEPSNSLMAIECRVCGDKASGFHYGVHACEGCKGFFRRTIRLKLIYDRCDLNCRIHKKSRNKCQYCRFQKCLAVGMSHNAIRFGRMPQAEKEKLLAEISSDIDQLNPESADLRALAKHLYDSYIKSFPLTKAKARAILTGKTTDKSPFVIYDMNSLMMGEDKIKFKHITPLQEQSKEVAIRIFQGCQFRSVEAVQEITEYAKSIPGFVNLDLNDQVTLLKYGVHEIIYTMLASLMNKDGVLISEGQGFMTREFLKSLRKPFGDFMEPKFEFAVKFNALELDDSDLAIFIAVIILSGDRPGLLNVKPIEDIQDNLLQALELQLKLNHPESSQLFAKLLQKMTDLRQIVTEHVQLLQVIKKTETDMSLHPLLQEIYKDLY

[2] = biological target: T2, PPARγ-LBD fused to GAL4-DBD (Mus musculus, UniProt P37238); assay: β-gal activity in 3T3-L1 cell lines 5B2 and 5B3 stably transfected with the feedback monitoring system; assay type: cell-based, murine; set-up: expressed in transfected cells
T2 sequence (P37238 238-503 limits assumed): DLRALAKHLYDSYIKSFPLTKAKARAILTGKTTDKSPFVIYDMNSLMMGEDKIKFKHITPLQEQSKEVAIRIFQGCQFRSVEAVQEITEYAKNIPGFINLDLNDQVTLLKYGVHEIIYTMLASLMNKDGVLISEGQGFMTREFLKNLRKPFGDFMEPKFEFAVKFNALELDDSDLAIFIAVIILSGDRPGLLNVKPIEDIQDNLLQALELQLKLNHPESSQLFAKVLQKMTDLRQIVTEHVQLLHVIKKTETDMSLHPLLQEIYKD

[3] = biological target: T2, PPARγ-LBD fused to GAL4-DBD; assay: PPARγ ligand monitoring system (Gal4-PPARγ-LBD / pUH-gal β-gal reporter) in transfected CV-1 cells; conditions: 3T3-L1 stimulated 2 days with combinations of Ins, Mix and Dex
Description: The effector and reporter constructs were transfected into either CV-1 cells (monkey kidney cells) or 3T3-L1 cells (murine fibroblast cells capable of being differentiated into adipocytes). Cells were grown according to standard protocols for these cells. For example, 3T3-L1 cells were grown and maintained as fibroblasts in DMEM/high glucose, containing 10% calf serum in a 10% CO2 humidified environment at 37° C. The cells were maintained at a subconfluent level so as to not prematurely arrest cell growth and induce differentiation. The cells were typically split 1:5 or 1:3 every 3 to 4 days. Cells were transfected using Lipofectamine™ 2000 Reagent (Life Technologies™, Carlsbad, Calif.) according to the manufacturers instructions. Cells were plated in 24 well dishes for the assay.
The washed cells were lysed with 200 μl lysis buffer (25 mM glycylglycine, 15 mM MgSO4, 4 mM EGTA, 1 mM DTT, 1% Triton) per well. […] The β-gal activity was measured for 10 sec. in a Luminometer (LB9507, EG&G, Bad Wildbad, Germany).
CV-1 cells were transfected as described above with pUH-G4-PPARγ and pUH-gal, with or without nuclear receptor interaction domain NBD1 of SRC-1 fused with VP16 or inactivated VP16. […] The treated, transfected cells were harvested and β-gal activity measured 48 hrs post-transfection.

3T3-L1 = conditions: cited from earlier work
PPARγ1 = assay: Full-length PPARγ1 / p3DR1-luc luciferase reporter in CV-1 cells stimulated with conditioned media; assay type: cell-based; conditions: CV-1, pCMV-PPARγ and p3DR1-luc, with or without NBD1-VP16; various concentrations
Description: CV-1 cells were transfected with an expression vector encoding full-length PPARγ1 (pCMV-PPARγ) and a reporter plasmid p3DR1-1uc. p3DR1-luc contains a triple copy of PPARγ response element, Direct Repeat 1, linked to the luciferase gene. The cells were transfected with the reporter with or without NBD1-VP16 expression vector. The transfected cells were incubated with or without conditioned media in the absence or presence of various concentrations of PD068235. The cells were washed and lysed as described above for the β-gal assay, except that 50 μl of the lysate were mixed with 100 μl assay buffer and measured for 15 sec. in the Luminometer. Assay buffer consisted of 25 mM glycylglycine, 15 mM MgSO4, 4 mM EGTA, 1 mM DTT, 15 mM KH2PO4, 6 mM ATP and 100 μl of a 0.225 mg/ml luciferin stock solution.

[4] = cited from earlier work; for LDL levels: human, in vivo

In the case of `CCCCCC(O)c1ccc(OCc2ccc3ccccc3n2)cc1` (single isomer, unassigned) [REV 5901-para-isomer], the “effect on β-gal activity produced by stimulated 5B2 cells” value (“effect on β-gal activity produced” below) ([1]; 5 μM in d0 media) is reported as “no significant effect”.
For `CCCCC/C=C/C=C1/C(=O)C=C[C@@H]1C/C=C\CCCC(=O)O` [15-deoxyΔ^12,14PG J2], the Kd (PPARγ; read-out: affinity (dissociation constant) of PPARγ for the ligand) is given as 2 to 50 µM.
In the case of `O=c1cc(-c2ccccc2)oc2cc(O)c(O)c(O)c12` [Baicalein], the “effect on β-gal activity produced” value ([1]; 5 μM in d0 media) is reported as “no significant effect”.
In the case of `COc1ccc2c(c1)c(CC(=O)O)c(C)n2C(=O)c1ccc(Cl)cc1` [Indomethacin], the “effect on β-gal activity produced” value ([1]; 10 μM in d0 media) is reported as “no significant effect”.
For `CC(C)c1ccc2c(c1)c(SC(C)(C)C)c(CC(C)(C)C(=O)O)n2Cc1ccc(Cl)cc1` [MK866], the “effect on β-gal activity produced” value ([1]; 5 μM in d0 media) was “no significant effect”.
In the case of `CC(C)Cn1c(=O)n(C)c(=O)c2[nH]cnc21` [Mix, methyl iso-butyl xanthine], the “induction of β-gal activity by components of the adipogenic mixture” value ([2]; 5B2 and 5B3, combinations of Ins, 0.5 mM Mix, Dex, day 2) is reported as “dependent on the stimulation by Mix”, the “ligand production (β-gal activity) on stimulation with cAMP elevating compounds” value ([2]; 5B2 cells) is reported as “induced the ligand production of differentiating pre-adipocytes by increasing the intracellular cAMP” and the “ligand production of 3T3-L1 cells (β-gal activity of CV-1 cells incubated with conditioned media)” value [3] is reported as “dependent on stimulation by Mix”.
With `CC(Cc1ccc(O)c(O)c1)C(C)Cc1ccc(O)c(O)c1` (stereo not drawn) [NDGA] the “effect on β-gal activity produced” value ([1]; 10 μM in d0 media) was “no significant effect”.
In the case of `C=CCn1cc([N+](=O)[O-])sc1=NC(=O)C(C)(C)C` [PD068235], the 3T3-L1 adipocyte differentiation (3T3-L1) is listed as “prevent 3T3-L1 adipocyte differentiation” and the “inhibition of CM-stimulated PPARγ transcriptional activity (luciferase)” value (PPARγ1) is listed as “dose-dependent inhibition of CM-stimulated PPARγ transcriptional activity”.
For `Cc1c(C)c2c(c(C)c1O)CCC(C)(COc1ccc(CC3SC(=O)NC3=O)cc1)O2` (stereo not drawn) [Troglitazone], the LDL levels [4] is listed as “associated with a rise in LDL levels” and the liver toxicity ([4]; patients) is listed as “liver toxicity in some patients”.
For `CCCCC/C=C\C/C=C\CCCCCCCC(=O)O` [linoleic acid], the “direct binding to PPARγ” value (PPARγ) is given as “bind directly to PPARγ”.
For `CN(CCOc1ccc(CC2SC(=O)NC2=O)cc1)c1ccccn1` (stereo not drawn) [rosiglitazone], the LDL levels [4] is listed as “associated with a rise in LDL levels”.
